From the SangsterLogP compilation

Assay: method code SF, from DOI: 10.1039/p29920001643

Nc1nonc1N
logP: -0.49

CCc1nonc1C
logP: 1.18

[O-][n+]1onc(-c2ccccc2)c1-c1ccccc1
logP: 3.64

[O-][n+]1onc(-c2ccccc2)c1CO
logP: 1.77

c1ccc(-c2nonc2-c2ccccc2)cc1
logP: 3.83

OCc1nonc1-c1ccccc1
logP: 1.92

Cc1nonc1C(N)=O
logP: 0.31

Cc1nonc1Sc1ccccc1
logP: 2.92

Cc1no[n+]([O-])c1-c1ccccc1
logP: 2.16

Cc1nonc1Cc1ccc([N+](=O)[O-])cc1
logP: 2.21

[O-][n+]1onc2ccccc21
logP: 1.43

Nc1no[n+]([O-])c1-c1ccccc1
logP: 1.47

Cc1c(S(=O)c2ccccc2)no[n+]1[O-] (stereo unspecified)
logP: 1.5

Cc1nonc1S(=O)(=O)c1ccccc1
logP: 2.36

CCS(=O)(=O)c1no[n+]([O-])c1C
logP: 0.65

Cc1c(Cl)no[n+]1[O-]
logP: 1.02

CC(=O)c1no[n+]([O-])c1C
logP: 0.98

Cc1nonc1S(=O)c1ccccc1 (stereo unspecified)
logP: 1.76

O=[N+]([O-])c1nonc1-c1ccccc1
logP: 2.63

COC(=O)Nc1nonc1C
logP: 0.42

Cc1c(C=O)no[n+]1[O-]
logP: 1.02

[O-][n+]1onc(Cl)c1-c1ccccc1
logP: 2.7

O=Cc1no[n+]([O-])c1-c1ccccc1
logP: 2.61

Cc1c(N)no[n+]1[O-]
logP: -0.17

COC(=O)c1no[n+]([O-])c1C
logP: 0.56

Clc1nonc1-c1ccccc1
logP: 3.2

Cc1c(S(=O)(=O)c2ccccc2)no[n+]1[O-]
logP: 2.03

Cc1nonc1-c1ccccc1
logP: 2.59

Cc1no[n+]([O-])c1Sc1ccccc1
logP: 2.74

CC(=O)Nc1nonc1N
logP: -0.23

c1ccc2nonc2c1
logP: 1.69

Cc1nonc1C
logP: 0.71

CCCc1nonc1C
logP: 1.71

Cc1no[n+]([O-])c1C=O
logP: 1.29

c1cnon1
logP: 0.16

Cc1c(Cc2ccccc2)no[n+]1[O-]
logP: 2.08

COC(=O)c1nonc1C
logP: 0.94

Cc1nonc1N
logP: 0.09

Cc1no[n+]([O-])c1S(=O)c1ccccc1 (stereo unspecified)
logP: 1.75

CNC(=O)Nc1nonc1C
logP: 0.3

CNC(=O)c1nonc1C
logP: 0.56

Nc1nonc1NC(=O)c1ccccc1
logP: 1.41

CC(=O)Nc1nonc1C
logP: 0.17

Cc1no[n+]([O-])c1C(N)=O
logP: 0.36

Cc1nonc1[N+](=O)[O-]
logP: 0.97

[O-][n+]1onc(CO)c1-c1ccccc1
logP: 1.64

Nc1c(-c2ccccc2)no[n+]1[O-]
logP: 1.42

[O-][n+]1onc(Cc2ccccc2)c1Cc1ccccc1
logP: 3.65

CC(=O)c1c(C)no[n+]1[O-]
logP: 0.8

Cc1no[n+]([O-])c1Cl
logP: 0.9

Cc1nsnc1C
logP: 1.28

Cc1no[n+]([O-])c1N
logP: -0.32

CCNc1nonc1N
logP: 0.51

O=Cc1c(-c2ccccc2)no[n+]1[O-]
logP: 2.92

Nc1nonc1-c1ccccc1
logP: 1.81

Cc1c(C(N)=O)no[n+]1[O-]
logP: 0.03

COC(=O)c1c(C)no[n+]1[O-]
logP: 0.69

c1ccc2nsnc2c1
logP: 1.98

Cc1no[n+]([O-])c1C
logP: 0.23

Cc1c(-c2ccccc2)no[n+]1[O-]
logP: 2.17

Cc1no[n+]([O-])c1Cc1ccccc1
logP: 2.22
